Test results taken from patent publication US20260146991A1, “COMPOSITION AND METHODS OF AGING-RELATED AGENT SCREENING AND TARGET ANALYSIS” (Centre for Translational Stem Cell Biology Limited, priority 2022, published 2026).
Entries after “also recorded” stand apart in the source; their conditions may differ.

What was measured:
TSC-STB differentiation = experiment: TSC-STB system, overall evaluation of anti-aging effect; format: cell-based, human; details: summary statement
Description: (§1) Same number of TSCs in robust growing state were seeded in STBM with/without a candidate agent in a black Polystyrene TC-treated 96-well Microplate pre-coated with 10 mg/ml Geltrex™ LDEV-Free Reduced Growth Factor Basement Membrane Matrix or Matrigel (1.5×10^4-2×10^4 cells per well). On each screening microplate, 3 wells of control (cells only with 0.5% DMSO in 100 μL STB growth medium) and 3 wells of positive control (some well-known anti-ageing agents in certain concentration) were included. The cells were cultured at 37° C. and 5% CO2 with saturating humidity and differentiated into mature STB in the medium for 6 days. Cell morphology was monitored daily under a microscope. The signal readouts of reporter molecules was assessed on day 2, day 4, and day 6. On day 6, cells in each well were fixed and stained with DAPI or Hoechst, and cell count and intensity (both reporter and nuclei) were assessed using high content microscopy to assess the agent's effects and cell viability. The agents, especially those that affect cell viability will also be tested at different concentrations and at different day during the STB differentiation process.
(§2) First, a known anti-aging drug Rapamycin was tested. TSCs in good growing state were seeded at 1.0×10^4-2×10^4 cells per well in a 24-well plate pre-coated with 10 mg/mL Geltrex™ LDEV-Free Reduced Growth Factor Basement Membrane Matrix or Matrigel. After 24 hours, 3 wells continued in TSCM; 3 wells switched to STBM+DMSO; 3 wells switched to STBM+Rapamycin (500 nM). The media was changed every 2-3 days. On day 6, β-hCG was measured by ELISA as described in Example 1. Expression of aging-related marker genes (e.g., CGA and CGB3) was measured by RT-qPCR as described in Example 1.

[1] = system: TSCs differentiating towards STBs; experiment: RT-qPCR of aging-related marker genes during TSC-STB differentiation; format: cell-based, human; details: FIG. 4H
Description: (§3) To generate the hTSC cell lines, the single cell suspension of hEPSCs were plated on a 6-well plate (1-2×10^3/well) pre-coated with 10 mg/mL Geltrex™ LDEV-Free Reduced Growth Factor Basement Membrane Matrix or Matrigel and cultured in human trophoblast stem cell medium (hTSCM) for 7-10 days. Then single colonies of the differentiated cells on the 6-well plate were picked and expanded. The expanded cell lines were validated with trophoblast markers and RNA-Seq analysis. The established TSC cell lines were maintained in the hTSCM medium and passaged at ratio 1:4-1:5 every 3-5 days. The hTSCM was DMEM/F12 based medium supported with: 110 μM β-mercaptoethanol, 0.2% FBS, 0.5% Penicillin-Streptomycin-Glutamine, 0.3% BSA, 1×ITS-X supplement, 50.0 μg/mL Vc, 50.0 ng/ml EGF, 2.0 μM CHIR99021, 0.5 μM A83-01, 1.0 μM SB431542, 0.8 μM VPA, and 5.0 μM Y27632. Established TSC cells were seeded at 1.0×10^5-2×10^5 cells per well in a six-well plate pre-coated with 10 mg/mL Geltrex™ LDEV-Free Reduced Growth Factor Basement Membrane Matrix or Matrigel, and were induced to differentiate into STBs after culturing in syncytiotrophoblasts medium (STBM) for around 6 days. The STBM comprises: DMEM/F12 supplemented with 110 μM β-mercaptoethanol, 0.5% Penicillin-Streptomycin, 0.3% BSA, 1×ITS-X, 2.5 μM Y27632, 2 μM Forskolin, and 4% KnockOut Serum Replacement. The cells became early syncytiotrophoblasts on day 2-3, and mature syncytiotrophoblasts around day 6.
RT-qPCR: Total RNA was extracted using RNeasy Mini Kit (Qiagen) per manufacturer specification. Extracted RNA was then reverse transcribed to cDNA using Fastking gDNA diselling RT SuperMix (Tiangen). Gene expression was measured using PowerUp™ SYBR™ Green Master Mix (Applied Biosystems) and StepOnePlus™ Real-Time PCR (Applied Biosystems) with the primers listed in Table E1A. Raw gene expression data was normalized to GAPDH by using the ΔCt method. Statistical analysis was carried out using either one/two-tailed student's t-test in Prism 8 (GraphPad).
as §2

[2] = system: TSCs differentiating towards STBs; experiment: Western blot of β-hCG during TSC-STB differentiation; format: cell-based, human; details: at certain / different concentrations, FIG. 4I
Description: Western blot: The proteins were extracted with RIPA lysis (thermofisher, Cat. 89901) and Pierce Protease Inhibitor Mini Tablets (thermofisher, Cat. A32953). Protein concentrations were measured with Pierce™ BCA Protein Assay Kits (thermofisher, Cat. 23227). Then samples with certain amount of NuPAGE™ LDS Sample Buffer (4×) (thermofisher, Cat. NP0008) were boiled at 70 degree for 10 min. Boiled samples were loaded with the same amount and separated in 12% polyacrylamide gels (Thermofisher Cat. NP0343BOX) and transferred to PVDF membranes using the Bio-Rad transblot turbo system according to the manufacturer's guidance. Images were developed by the ChemiDoc Imaging System and processed with ImageJ 1.47v. The following primary antibodies were used: anti-GAPDH (thermosfisher, Cat. AM4300, 1:10000 for western blot), anti-Ki67 (thermofisher, Cat. MA5-14520, 1:1000 for western blot, 1:200 for IF), anti-HERVK-gag (Austral Biologicals, Cat. HERM-1811-5, 1:200 for IF), anti-TRF1 (Abcam, Cat. ab 10579, 1:100 for IF), anti-ZO-1 (CST, Cat. 13663, 1:200 for IF), anti-CGB3 (Abcam, Cat. Ab131170, 1:200 for IF), anti-H3 (CST, Cat. 4499 1:2000 for western blot), anti-H3K9mc3 (Abcam, Cat. ab8898, 1:1000 for western blot), anti-E-cadherin (CST, Cat. 14472, 1:200 for IF), anti-p38 MAPK (thermofisher, Cat. 338700, 1:1000 for western blot), anti-LaminB1 (thermofisher, Cat. 702972, 1:1000 for western blot, 1:200 for IF), anti-p27 Kip1 (thermofisher, Cat. PA527188, 1:1000 for western blot), anti-Hp1 gamma (thermofisher, Cat. MA3054, 1:1000 for western blot, 1:300 for IF), anti-SIRT1 (CST, Cat. 8469S, 1:1000 for western blot), anti-SIRT6 (CST, Cat. 12486S, 1:1000 for western blot), anti-SIRT3 (thermofisher, Cat. MA514910, 1:1000 for western blot), anti-p53 (thermofisher, Cat. MA512557, 1:1000 for western blot, 1:200 for IF), anti-gammaH2AX (CST, Cat. 2577s, 1:1000 for western blot, 1:200 for IF), anti-IL-6 (thermofisher, Cat. MA523698, 1:50 for IF), anti-hCG (thermofisher, Cat. 14-6508-82, 1:1000 for western blot, 1:200 for IF). […]

[3] = system: TSCs differentiating towards STBs; experiment: Cell morphology, viability and proliferation during TSC-STB differentiation; format: cell-based, human; details: for morphology: appearance of multinucleated STB cells: treated cells during TSC-STB differentiation, FIG. 4E
Description: as §3, §1, §2

[4] = background; cited from earlier work
model organisms = details: yeast, worms, flies, male mice; background; cited from earlier work
[5] = system: TSCs differentiating towards STBs; experiment: ELISA of secreted β-hCG during TSC-STB differentiation; format: cell-based, human; details: compared to the DMSO control group; FIG. 4F
Description: as §3, with “The STBM comprises: DMEM/F12 supplemented with 110 μM β-mercaptoethanol, 0.5% Penicillin-Streptomycin, 0.3% BSA, 1×ITS-X, 2.5 μM Y27632, 2 μM Forskolin, and 4% KnockOut Serum Replacement. The cells became early syncytiotrophoblasts on day 2-3, and mature syncytiotrophoblasts around day 6.” left out
First, a known anti-aging drug Rapamycin was tested. […] On day 6, β-hCG was measured by ELISA as described in Example 1. Expression of aging-related marker genes (e.g., CGA and CGB3) was measured by RT-qPCR as described in Example 1.

| Molecule | anti-aging effect in the TSC-STB system (TSC-STB differentiation) | CGA expression ([1]; 1 μM) | CGA expression ([1]; 10 μM) | morphology: appearance of multinucleated STB cells [3] | further results |
| --- | --- | --- | --- | --- | --- |
| O=c1c(O)c(-c2ccc(O)c(O)c2)oc2cc(O)ccc12 [Fisetin] | showed anti-aging effects as expected | reduced | increasing | – | β-hCG expression (Western blot) [2]: reduced; β-hCG expression (Western blot) ([2]; listed as Fisctin): significantly reduce |
| CO[C@H]1C[C@@H]2CC[C@@H](C)[C@@](O)(O2)C(=O)C(=O)N2CCCC[C@H]2C(=O)O[C@H]([C@H](C)C[C@@H]2CC[C@@H](O)[C@H](OC)C2)CC(=O)[C@H](C)/C=C(\C)[C@@H](O)[C@@H](OC)C(=O)[C@H](C)C[C@H](C)/C=C/C=C/C=C/1C [Rapamycin] | – | – | – | – | cell viability or proliferation ([3]; 500 nM, FIG. 4A): did not affect |
| CC(=O)Oc1ccccc1C(=O)O [aspirin] | – | – | – | – | side effects in humans [4]: increase the risk of gastrointestinal bleeding; lifespan in some model organisms (model organisms): extend lifespan |
| CC(C)n1nc(-c2ccc3oc(N)nc3c2)c2c(N)ncnc21 [INK128] | – | – | – | delayed appearance of multinucleated STB cells | secreted β-hCG level (ELISA) [5]: significantly lower; β-hCG expression (Western blot) [2]: significantly reduce; also recorded: reduced |
| STM2457 | – | – | – | delayed appearance of multinucleated STB cells | – |
| CN(C)C(=N)N=C(N)N [metformin] | showed anti-aging effects as expected | – | – | – | – |
| CC(C)C(=O)OC[C@H]1O[C@@H](n2ccc(NO)nc2=O)[C@H](O)[C@@H]1O [Molnupiravir] | – | – | – | delayed appearance of multinucleated STB cells | – |
| CC(C)C[C@H](NC(=O)OCc1ccccc1)C(=O)N[C@@H](C[C@@H]1CCNC1=O)C(O)S(=O)(=O)[O-].[Na+] (some centres unmarked) [GC376] | – | – | – | delayed appearance of multinucleated STB cells | – |
| Cc1ccc(-c2cc(C(F)(F)F)nn2-c2ccc(S(N)(=O)=O)cc2)cc1 [celecoxib] | – | – | – | – | side effects in humans [4]: major bleeding events and increase in all-cause mortality |
| CC(C)Cc1ccc(C(C)C(=O)O)cc1 (centres unmarked) [ibuprofen] | – | – | – | – | side effects in humans [4]: major bleeding events and increase in all-cause mortality; lifespan in some model organisms (model organisms): extend lifespan |
| NCCCCNCCCN [Spermdine] | – | decrease | decrease | – | – |
| NC(=O)c1ccc[n+]([C@@H]2O[C@H](COP(=O)([O-])O)[C@@H](O)[C@H]2O)c1 [NMN, Nicotinamide mononucleotide] | showed anti-aging effects as expected | reduced | increasing | – | – |
| O=c1c(O)c(-c2ccc(O)c(O)c2)oc2cc(O)cc(O)c12 [Quercetin] | showed anti-aging effects as expected | decrease | decrease | – | – |
